Source: article PMC2963183, “Enzyme Inhibition by Molluscicidal Components of Myristica fragrans Houtt. in the Nervous Tissue of Snail Lymnaea acuminata” (Enzyme Research, 2009)

Tests used:
[1] = test system: alkaline phosphatase (ALP); conditions: glycine-NaOH buffer, MgCl2, 37°C; no inhibitor; tissue homogenate supernatant
acid phosphatase (ACP) [2] = conditions: citrate acid buffer, 37°C; no inhibitor; tissue homogenate supernatant
[3] = test system: T1, acetylcholinesterase (AChE); test: Ellman assay, […] nm, Lineweaver-Burk; assay type: biochemical, Lymnaea acuminata; conditions: pH 8.0, 25°C; no inhibitor; tissue homogenate supernatant
T1 construct: native, crude nervous tissue homogenate supernatant (1000 g), not purified

[4] = molecular target: T1, acetylcholinesterase (AChE); test: Ellman assay, […] nm; assay type: biochemical, Lymnaea acuminata; conditions: acetylthiocholine iodide, pH 8.0, 25°C, 15 min preincubation; tissue homogenate supernatant; competitive noncompetitive
acid phosphatase (ACP) [5] = molecular target: T2, acid phosphatase (ACP); test: 4-nitrophenol release, […] nm; assay type: biochemical, Lymnaea acuminata; conditions: 4-nitrophenyl phosphate, citrate acid buffer, 37°C, 15 min preincubation at 25°C, tissue homogenate supernatant
T2 construct: native, crude nervous tissue homogenate supernatant (5000 g), not purified; isoenzyme not identified

[6] = molecular target: T3, alkaline phosphatase (ALP); test: 4-nitrophenol release, […] nm; assay type: biochemical, Lymnaea acuminata; conditions: 4-nitrophenyl phosphate, glycine-NaOH buffer, MgCl2, 37°C, 15 min preincubation at 25°C, tissue homogenate supernatant
T3 construct: native, crude nervous tissue homogenate supernatant (5000 g), not purified; isoenzyme not identified

**Q.** How did the Km [1] turn out when O=[N+]([O-])c1ccc(OP(=O)(O)O)cc1 [4-nitrophenyl phosphate] was run?
**A.** 20 µM

**Q.** What about the Km (acid phosphatase (ACP) [2]) of the same compound?
**A.** 13.7 µM

**Q.** Which Km [3] does the source give for CC(=O)SCC[N+](C)(C)C [acetylthiocholine iodide] here?
**A.** 317 µM

**Q.** Which IC50 [4] does the source give for C=CCc1cc(OC)c2c(c1)OCO2 [myristicin, 4-methoxy-6-(2-propenyl)-1,3-benzodioxole] here?
**A.** 30 µM

**Q.** And the IC50 (acid phosphatase (ACP) [5]; competitive)?
**A.** 70 µM

**Q.** What about the IC50 ([6]; uncompetitive) of the same compound?
**A.** 60 µM

**Q.** CCCCCCCCCCCCCC(=O)OCC(COC(=O)CCCCCCCCCCCCC)OC(=O)CCCCCCCCCCCCC [trimyristin, 1,2,3-tritetradecanoylglycerol] was tested. Which IC50 [4] did it give?
**A.** 110 µM

**Q.** And the IC50 (acid phosphatase (ACP) [5]; uncompetitive)?
**A.** 160 µM

**Q.** And the IC50 ([6]; competitive noncompetitive)?
**A.** 180 µM
